Measured values taken from the NIST ThermoML archive (doi:10.1016/j.tca.2017.12.013).

Assay: molar heat capacity at constant pressure
Details: 101.33 kPa, Crystal 2, DSC

[Ag+].[Ag+].[S-2] [silver sulfide]
Details	molar heat capacity at constant pressure [J/K/mol]
617.82 K	86.15
618.82 K	86.13
619.82 K	86.1
620.82 K	86.08
621.82 K	86.05
622.82 K	86.03
623.82 K	86.01
624.82 K	85.99
625.82 K	85.96
626.82 K	85.94
627.82 K	85.92
628.82 K	85.9
629.82 K	85.88
630.82 K	85.86
631.82 K	85.84
632.82 K	85.82
633.82 K	85.8
634.82 K	85.78
635.82 K	85.76
636.82 K	85.74
637.82 K	85.73
638.82 K	85.71
639.82 K	85.7
640.82 K	85.7
641.82 K	85.69
642.82 K	85.67
643.82 K	85.66
644.82 K	85.65
645.82 K	85.64
646.82 K	85.62
647.82 K	85.62
648.82 K	85.61
649.82 K	85.6
650.82 K	85.59
651.82 K	85.57
652.82 K	85.57
653.82 K	85.57
654.82 K	85.57
655.82 K	85.56
656.82 K	85.56
657.82 K	85.56
658.82 K	85.56
659.82 K	85.57
660.82 K	85.56
661.82 K	85.56
662.82 K	85.57
663.82 K	85.57
664.82 K	85.57
665.82 K	85.57
666.82 K	85.57
667.82 K	85.57
668.82 K	85.57
669.82 K	85.58
670.82 K	85.59
671.82 K	85.6
672.82 K	85.61
673.82 K	85.62
674.82 K	85.63
675.82 K	85.64
676.82 K	85.66
677.82 K	85.67
678.82 K	85.69
679.82 K	85.7
680.82 K	85.72
681.82 K	85.74
682.82 K	85.75
683.82 K	85.77
684.82 K	85.79
685.82 K	85.81
686.82 K	85.83
687.82 K	85.85
688.82 K	85.87
689.82 K	85.89
690.82 K	85.92
691.82 K	85.94
692.82 K	85.96
693.82 K	85.99
694.82 K	86.01
695.82 K	86.04
696.82 K	86.06
697.82 K	86.09
698.82 K	86.12
699.82 K	86.14
700.82 K	86.04
701.82 K	86.05
702.82 K	86.06
703.82 K	86.07
704.82 K	86.08
705.82 K	86.09
706.82 K	86.1
707.82 K	86.11
708.82 K	86.12
709.82 K	86.13
710.82 K	86.14
711.82 K	86.15
712.82 K	86.16
713.82 K	86.17
714.82 K	86.18
715.82 K	86.19
716.82 K	86.2
717.82 K	86.21
718.82 K	86.22
719.82 K	86.23
720.82 K	86.24
721.82 K	86.25
722.82 K	86.26
723.82 K	86.26
724.82 K	86.27
725.82 K	86.28
726.82 K	86.29
727.82 K	86.3
728.82 K	86.3
729.82 K	86.31
730.82 K	86.32
731.82 K	86.32
732.82 K	86.33
733.82 K	86.33
734.82 K	86.34
735.82 K	86.34
736.82 K	86.35
737.82 K	86.35
738.82 K	86.35
739.82 K	86.35
740.82 K	86.36
741.82 K	86.36
742.82 K	86.36
743.82 K	86.36
744.82 K	86.36
745.82 K	86.36
746.82 K	86.35
747.82 K	86.35
748.82 K	86.35
749.82 K	86.35
750.82 K	86.34
751.82 K	86.34
752.82 K	86.33
753.82 K	86.33
754.82 K	86.32
755.82 K	86.31
756.82 K	86.31
757.82 K	86.3
758.82 K	86.29
759.82 K	86.28
760.82 K	86.27
761.82 K	86.27
762.82 K	86.26
763.82 K	86.25
764.82 K	86.24
765.82 K	86.23
766.82 K	86.21
767.82 K	86.2
768.82 K	86.19
769.82 K	86.18
